Data from patent publication US12559504B2, “Benzotriazole derivative” (UBE CORPORATION, priority 2019, dated 2026).

Key:
[1] = target: T1, GST fusion human Keap1 (amino acid residue: 325-624) protein (Homo sapiens, UniProt Q14145); assay: Keap1-Nrf2 binding inhibition test (fluorescence polarization); settings: compound concentration of 100 nM; read-out: inhibition rate
T1 construct: GST fusion human Keap1 (amino acid residue: 325-624) protein; purchased Protein tech Ag0779
Method in brief: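 Fluorescence polarization with FITC-labelled Nrf2 peptide (FITC-Ahx-LDEETGEFL-NH2) and GST-human Keap1 (325-624) in 20 mM Tris pH 7.5, 150 mM NaCl, 0.05% Tween 20, 5 mM DTT, BSA; 30 min at room temperature, ex 482/em 530 nm. Percent inhibition at 100 nM compound, Keap1-free wells = 100%.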

[2] = system: NQO1; assay: NQO1 enzyme induction test (in vitro) in Hepa1c1c7 cells; type: cell-based; settings: Mus musculus, Hepa-1c1c7, 48 h, concentration to elevate the NQO1 activity by 1.5 times, about 48 hours, read-out: EC150
Method in brief: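 Mouse Hepa1c1c7 cells treated about 48 h with compound (0.1% DMSO final), then lysed. NQO1 activity read as MTT reduction at 540 nm with menadione substrate, 5 min at room temperature, and corrected for cell number by CellTiter-Glo. EC150 is the concentration raising NQO1 activity 1.5-fold.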

[3] = system: NQO1; assay: NQO1 expression induction test in mouse kidney (single administration); type: in vivo; settings: Mus musculus, po, 6 h, Dose 20 mg/kg, BALB/c mouse kidney, 6 hours after administration, ratio to control group
Method in brief: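 Female BALB/c mice received a single oral dose of compound in 0.5% methylcellulose, with untreated mice as controls. Six hours later, left-kidney NQO1 mRNA was measured by SYBR real-time RT-PCR normalised to GAPDH. Induction was expressed as the ratio of mean treated to mean control expression.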

[4] = Metabolism test using human liver microsome fractions; type: in vitro ADME; settings: human liver microsomes, test compound 10 μmol/L, NADPH and UDP-glucuronic acid, 37° C.
Method in brief: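 Compound depletion at 10 μmol/L final, 37 °C, followed by UV-HPLC of acetonitrile-quenched aliquots taken 0, 5, 10, 15, 20, 30 min; incubations contained microsomes (1 mg protein, human or monkey) with NADPH and UDPGA cofactors. Rate = slope over linear range.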

T1 sequence (Q14145 325-624): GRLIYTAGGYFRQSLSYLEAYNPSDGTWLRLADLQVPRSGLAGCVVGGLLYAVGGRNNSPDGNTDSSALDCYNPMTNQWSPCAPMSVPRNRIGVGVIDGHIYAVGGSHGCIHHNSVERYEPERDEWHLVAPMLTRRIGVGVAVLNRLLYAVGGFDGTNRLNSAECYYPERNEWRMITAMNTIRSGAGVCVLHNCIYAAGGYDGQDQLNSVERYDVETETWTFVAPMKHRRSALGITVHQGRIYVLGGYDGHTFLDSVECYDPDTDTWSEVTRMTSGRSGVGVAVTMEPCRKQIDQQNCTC

inhibition at 0.1 µM [1]	Compound	EC (1.5-fold NQO1 activity) [2]	fold induction at 20 mg/kg [3]	Human metabolic rate [4]
≥ 50%	CC[C@@H]1CN(Cc2cc(C(c3ccc4c(nnn4C)c3C)C(C)(C)C(=O)O)ccc2OC)Cc2cc3ncccc3cc2O1 (stereo partly drawn) [Example 81-(b), 3-(1,4-dimethyl-1H-benzo[d][1,2,3]triazol-5-yl)-3-(3-(((R)-2-ethyl-2,3-dihydro-[1,4]oxazepino[7,6-g]quinolin-4 (5H)-yl)methyl)-4-methoxyphenyl)-2,2-dimethylpropanoic Acid]	0.005 to 0.05 µM	3 to 6	A (metabolic rate<100 pmol/min/mg protein)
≥ 50%	CC[C@@H]1CN(Cc2cc(C(c3ccc4c(c3)nnn4C)C(C)(C)C(=O)O)ccc2C)Cc2cc3ncccc3cc2O1 (stereo partly drawn) [Example 82-(b), 3-(3-(((R)-2-ethyl-2,3-dihydro-[1,4]oxazepino[7,6-g]quinolin-4 (5H)-yl)methyl)-4-methylphenyl)-2,2-dimethyl-3-(1-methyl-1H-benzo[d][1,2,3]triazol-5-yl) propanoic Acid]	0.005 to 0.05 µM	> 6	B (100≤metabolic rate<150 pmol/min/mg protein)
≥ 50%	CC[C@@H]1CN(Cc2cc(C(c3ccc4c(nnn4C)c3C)C3(C(=O)O)CCC3)ccc2C)Cc2cc3ncccc3cc2O1 (stereo partly drawn) [Example 84-(b), 1-((1,4-dimethyl-1H-benzo[d][1,2,3]triazol-5-yl) (3-(((R)-2-ethyl-2,3-dihydro-[1,4]oxazepino[7,6-g]quinolin-4 (5H)-yl)methyl)-4-methylphenyl)methyl)cyclobutane-1-carboxylic Acid]	0.0005 to 0.005 µM	> 6	C (150≤metabolic rate<200 pmol/min/mg protein)
